{"source": "patent US8530492B2", "about": "“Oligomer-protein tyrosine kinase inhibitor conjugates” (Nektar Therapeutics, priority 2009, dated 2013)", "data": [{"test_system": "Caco-2 cells", "assay": "Caco-2 permeability (bi-directional; pH 7.4/pH 7.4)", "format": "in vitro ADME, human", "settings": "Caco-2, 10 μM, 120 minutes", "protocol": "Caco-2 cells are used as an in vitro model of the human intestinal epithelium and permit assessment of the intestinal permeability of potential drugs. Test compound is added to either the apical or basolateral side of a confluent monolayer of Caco-2 cells and permeability is measured by monitoring the appearance of the test compound on the opposite side of the membrane using LC-MS/MS. Apparent permeability (Papp) coefficients, efflux ratio for the test compound and recovery values were determined.\nTo measure the permeability of test compound in the apical to basolateral (A-B) and basolateral to apical (B-A) direction across Caco-2 cells.\nCaco-2 cells obtained from the ATCC are used between passage numbers 40-60. Cells are seeded on to Millipore Multiscreen Caco-2 plates at 1×10^5 cells/cm^2. They are cultured for 20 days in DMEM and media is changed every two or three days. On day 20 the permeability study is performed.\nOn day 20, the monolayers are prepared by rinsing both basolateral and apical surfaces twice with HBSS at 37° C. Cells are then incubated with HBSS in both apical and basolateral compartments for 40 min to stabilize physiological parameters. HBSS is then removed from the apical compartment and replaced with test compound dosing solutions. […] The fluorescent integrity marker lucifer yellow is also included in the dosing solution. Analytical standards are made from dosing solutions. The apical compartment inserts are then placed into ‘companion’ plates containing fresh HBSS. For basolateral to apical (B-A) permeability determination the experiment is initiated by replacing buffer in the inserts then placing them in companion plates containing dosing solutions. At 120 minutes the companion plate is removed and apical and basolateral samples diluted for analysis by LC-MS/MS. Test compound permeability was assessed in duplicate. On each plate, compounds of known permeability characteristics were run as controls.\nTest and control compounds were quantified by LC-MS/MS cassette analysis using a 5-point calibration with appropriate dilution of the samples. Cyprotex generic analytical conditions were used. The starting concentration (C0) and experimental recovery were calculated from both apical and basolateral compartment concentrations.\nThe integrity of the monolayers throughout the experiment was checked by monitoring lucifer yellow permeation using fluorimetric analysis. Lucifer yellow permeation is low if monolayers have not been damaged. […] If lucifer yellow Papp values are above QC limits in both replicate wells for a test compound, the compound was re-tested.\nData Analysis: The permeability coefficient for each compound (Papp) is calculated from the following equation:\n[formula] wherein dQ/dt is the rate of permeation of the drug across the cells, C0 is the donor compartment concentration at time zero and A is the area of the cell monolayer. C0 is obtained from analysis of donor and receiver compartments at the end of the incubation period. It is assumed that all of the test compound measured after 120 minutes incubation was initially present in the donor compartment at 0 minutes. An efflux ratio (ER) is derived as follows:\nTalinolol (a known P-gp substrate) is also included as a control compound to assess whether functional P-gp is present in the Caco-2 cell monolayer.", "units": {"Permeability (apparent permeability, Papp (A-B))": "×10⁻⁶ cm/s"}, "values": [{"smiles": "COCCOCCOCCOCCOCCOCCOCCNCc1ccc(C(=O)Nc2ccc(C)c(Nc3nccc(-c4cccnc4)n3)c2)cc1", "Permeability (apparent permeability, Papp (A-B))": "0.04 ± 0.01"}, {"smiles": "COCCOCCOCCNCc1ccc(C(=O)Nc2ccc(C)c(Nc3nccc(-c4cccnc4)n3)c2)cc1", "note": "[mPEG3-N-Imatinib]", "Permeability (apparent permeability, Papp (A-B))": "0.6 ± 0.07"}, {"smiles": "COCCOCCOCCN1CCN(Cc2ccc(C(=O)Nc3ccc(C)c(Nc4nccc(-c5cccnc5)n4)c3)cc2)CC1", "note": "[mPEG3-N′-Imatinib]", "Permeability (apparent permeability, Papp (A-B))": "4 ± 0.8"}, {"smiles": "COCCOCCOCCOCCOCCNCc1ccc(C(=O)Nc2ccc(C)c(Nc3nccc(-c4cccnc4)n3)c2)cc1", "note": "[mPEG5-N-Imatinib]", "Permeability (apparent permeability, Papp (A-B))": "0.05 ± 0.02"}, {"smiles": "COCCOCCOCCOCCOCCN1CCN(Cc2ccc(C(=O)Nc3ccc(C)c(Nc4nccc(-c5cccnc5)n4)c3)cc2)CC1", "note": "[mPEG5-N′-Imatinib]", "Permeability (apparent permeability, Papp (A-B))": "1 ± 0.2"}, {"smiles": "COCCOCCOCCOCCOCCOCCOCCN1CCN(Cc2ccc(C(=O)Nc3ccc(C)c(Nc4nccc(-c5cccnc5)n4)c3)cc2)CC1", "note": "[mPEG7-N′-Imatinib]", "Permeability (apparent permeability, Papp (A-B))": "0.3 ± 0.01"}, {"smiles": "COCCOCCOCCOCCOCCOCCOCCOCCOCCNCc1ccc(C(=O)Nc2ccc(C)c(Nc3nccc(-c4cccnc4)n3)c2)cc1", "note": "[mPEG9-N-Imatinib]", "Permeability (apparent permeability, Papp (A-B))": "0.01 ± 0.004"}, {"smiles": "COCCOCCOCCOCCOCCOCCOCCOCCOCCN1CCN(Cc2ccc(C(=O)Nc3ccc(C)c(Nc4nccc(-c5cccnc5)n4)c3)cc2)CC1", "note": "[mPEG9-N′-Imatinib]", "Permeability (apparent permeability, Papp (A-B))": "0.05 ± 0.02"}]}]}
